Test results published in the RepoRT retention time repository (doi:10.1016/j.jhazmat.2019.121712).

experiment: Thermo Scientific Acclaim RSLC 120 C18, 100 × 2.1 mm, 2.2 µm, 30 °C; A: 90% water + 10% methanol + 0.01% formic acid + 5 mM ammonium formate; B: methanol + 0.01% formic acid + 5 mM ammonium formate; gradient (min/%B) 0.1/1 3/39 14/99.9 16/99.9; conditions: stereoisomer not certain

Row | SMILES | LC retention time [min]
1 | CCCCCn1cc(C(=O)c2cccc3ccccc23)c2ccccc21 | 12.4
2 | C#CCNC(C)Cc1ccccc1 (centres undefined) | 4.66
3 | CCCc1nn(C)c2c(=O)[nH]c(-c3cc(C(=O)CN4CCN(CC)CC4)ccc3OCC)nc12 | 7.01
4 | COc1cc(CC(C)N)c(OC)cc1C (centres undefined) | 5.83
5 | CN(C)CCOC(c1ccccc1)c1ccccc1 | 6.63
6 | COc1nccnc1NS(=O)(=O)c1ccc(N)cc1 | 4.44
7 | CCCCCn1cc(C(=O)c2ccc(CC)c3ccccc23)c2ccccc21 | 13.2
8 | CNC(=N[N+](=O)[O-])NCC1CCOC1 (centres undefined) | 3.59
9 | CCCS(=O)(=O)c1ccc2nc(NC(=O)OC)[nH]c2c1 | 5.86
10 | CC(O)CCn1cc(C(=O)c2cccc3ccccc23)c2ccccc21 (centres undefined) | 9.91
11 | CC(O)(C(N)=O)c1ccccc1 (centres undefined) | 12.9
12 | CCCCNC(=O)NS(=O)(=O)c1ccc(N)cc1 | 5.36
13 | CCCCNc1cc(C(=O)O)cc(S(N)(=O)=O)c1Oc1ccccc1 | 7.83
14 | CCn1cc(C(=O)O)c(=O)c2cc3c(cc21)OCO3 | 6.03
15 | CC[N+]([O-])(CC)CC(=O)Nc1c(C)cccc1C | 5.34
16 | CCCCN1CC(=O)N2C(Cc3c([nH]c4ccccc34)C2c2ccc3c(c2)OCO3)C1=O (centres undefined) | 10.2
17 | COc1ccc2cc(CCC(C)=O)ccc2c1 | 9.82
18 | CCOP(=S)(OCC)Oc1cnccn1 | 8.35
19 | Nc1nc(N)nc(NC2CC2)n1 | 2.78
20 | CCOc1ccc(NC(=O)CC(C)O)cc1 (centres undefined) | 6.27
21 | Cc1ccc(C(=O)c2ccc(CC(=O)O)n2C)cc1 | 7.89
22 | COC(=O)Nc1nc2ccc(C(=O)c3ccccc3)cc2[nH]1 | 8.25
23 | CNCCCC1c2ccccc2C=Cc2ccccc21 | 7.99

Row | SMILES | LC retention time [min]
24 | CCCCn1cc(C(=O)c2cccc3ccccc23)c2cc(O)ccc21 | 11.3
25 | CCC(C)N(C(=O)SCc1ccccc1)C(C)CC (centres undefined) | 12.8
26 | CCCc1nc2c(C)cc(-c3nc4ccccc4n3C)cc2n1Cc1ccc(-c2ccccc2C(=O)O)cc1 | 10.3
27 | COc1ccc(-c2oc3c(CC=C(C)C)c(OC4OC(CO)C(O)C(O)C4O)cc(O)c3c(=O)c2OC2OC(C)C(O)C(O)C2O)cc1 (centres undefined) | 8.24
28 | CCCCCC(C)N (centres undefined) | 5.01
29 | CNC(=O)ON=CC(C)(C)S(C)=O (centres undefined) | 3.5
30 | COC(=O)NC(=S)Nc1ccccc1NC(=S)NC(=O)OC | 6.93
31 | CNC(C)C(=O)c1ccccc1 (centres undefined) | 3.68
32 | CCS(=O)(=O)CCn1c([N+](=O)[O-])cnc1C | 3.86
33 | CN1CCC23c4c5ccc(OC6OC(C(=O)O)C(O)C(O)C6O)c4OC2C(O)C=CC3C1C5 (centres undefined) | 1.63
34 | Nc1nc2c(ncn2CCC(CO)CO)c(=O)[nH]1 | 2.98
35 | CC1C(=O)OC2CCN3CC=C(COC(=O)C(C)(O)C1(C)O)C23 (centres undefined) | 2.92
36 | CCCCc1c(C)nc(NCC)[nH]c1=O | 8
37 | CC(C)(C(=O)c1cccnc1)c1cccnc1 | 6.21
38 | CCOC(=O)C1(c2ccccc2)CCC=CC1NC (centres undefined) | 5.28
39 | CC(C)Nc1nc(N)[nH]c(=O)n1 | 3.16
40 | CCOc1ccccc1OC(c1ccccc1)C1CNCCO1 (centres undefined) | 7.28
41 | CN(C)CCN(Cc1cccs1)c1ccccc1 | 6.32
42 | OC(CCN1CCCCC1)(c1ccccc1)C1CCCCC1 (centres undefined) | 7.86
43 | CC1CC2C(C(O)CC3(C)C2CCC3(O)C(=O)CO)C2(C)C=CC(=O)C=C12 (centres undefined) | 8.75
44 | Nc1ccc(S(=O)(=O)Nc2nccs2)cc1 | 3.63
45 | COc1cccc(C(=O)CCNC(C)C(O)c2ccccc2)c1 (centres undefined) | 6.14
46 | COC(=O)Nc1nc2ccc(Sc3ccccc3)cc2[nH]1 | 10.3

Row | SMILES | LC retention time [min]
47 | Cc1ccc(N=Nc2c(O)ccc3ccccc23)c(C)c1 | 14.9
48 | CCCc1nn(C)c2c(=O)[nH]c(-c3cc(S(=O)(=O)N4CCNCC4)ccc3OCC)nc12 | 7.35
49 | CCS(=O)(=O)c1cccnc1S(=O)(=O)NC(=O)Nc1nc(OC)cc(OC)n1 | 7.09
50 | CCCCCCOC(=O)NC(=N)c1ccc(NCc2nc3cc(C(=O)N(CCC(=O)OCC)c4ccccn4)ccc3n2C)cc1 | 9.29
51 | CCCc1nc(C)c2c(=O)[nH]c(-c3cc(S(=O)(=O)N4CCCCC4)ccc3OCC)nn12 | 10.6
52 | COc1cc(OC)nc(Oc2cccc(Oc3nc(OC)cc(OC)n3)c2C(=O)O)n1 | 8.86
53 | Cc1cnc(C(=O)NCCc2ccc(S(=O)(=O)NC(=O)NC3CCCCC3)cc2)cn1 | 8.11
54 | CCN(CC)CCN1c2ccccc2Sc2ccccc21 | 7.76
55 | Cc1c(N(C)C)c(=O)n(-c2ccccc2)n1C | 5.21
56 | CN1C2CC(OC(=O)C(CO)c3ccccc3)CC1C1OC12 (centres undefined) | 3.83
57 | COc1ccc2cccc(CCNC(C)=O)c2c1 | 8.68
58 | CCC1C2CC3C4N(C)c5ccccc5C45CC(C2C5O)N3C1O (centres undefined) | 5.19
59 | CCCc1nn(C)c2c(=O)[nH]c(-c3cc(C(=O)CN4CCN(CC)C(=O)C4=O)ccc3OCC)nc12 | 8.18
60 | CC12CCC3c4ccc(O)c(O)c4CCC3C1CCC2=O (centres undefined) | 8.69
61 | CNC(=O)Oc1cccc(C)c1 | 6.59
62 | COc1cccc(C2(O)CCCCC2CN)c1 (centres undefined) | 5.19
63 | CCCC(C)(COC(N)=O)COC(=O)NC(C)C (centres undefined) | 7.99
64 | COP(N)(=O)SC (centres undefined) | 2.76
65 | NCC1(CC(=O)O)CCCCC1 | 3.78
66 | Nc1ccn(C2OC(CO)C(O)C2O)c(=O)n1 (centres undefined) | 1.39
67 | Nc1ccc(S(N)(=O)=O)cc1 | 2.23
68 | COC(=O)C1=C(C)NC(C)=C(C(=O)OCC(C)C)C1c1ccccc1[N+](=O)[O-] (centres undefined) | 10.6
69 | CCC(c1ccccc1)c1c(O)c2ccccc2oc1=O (centres undefined) | 9.05

Row | SMILES | LC retention time [min]
70 | c1ccc2c(CC3=NCCN3)cccc2c1 | 4.84
71 | CCC(=O)C1(c2cccc(O)c2)CCN(C)CC1 | 4.26
72 | CCN1CCCC1CNC(=O)c1cc(S(N)(=O)=O)ccc1O (centres undefined) | 3.18
73 | NC(=O)N1c2ccccc2CC(=O)c2ccccc21 | 6.46
74 | CNC(C)Cc1cccs1 (centres undefined) | 3.69
75 | CCOP(=O)(OCC)OCC | 6.16
76 | CCCc1nn(C)c2c(=S)nc(-c3cc(S(=O)(=O)N4CC(C)NC(C)C4)ccc3OCC)[nH]c12 (centres undefined) | 9.91
77 | COc1nn(CSP(=S)(OC)OC)c(=O)s1 | 8.7
78 | CC(C)N(C(=O)C(=O)O)c1ccccc1 | 5.13
79 | Nc1nc(N)nc(N)n1 | 1.45
80 | CCOC(=O)C1=CC(OC(CC)CC)C(NC(C)=O)C(N)C1 (centres undefined) | 6.76
81 | C1=Cc2ccccc2Nc2ccccc21 | 10.1
82 | CCCCN(CC)C(=O)SCCC | 11.5
83 | O=S(=O)(O)NC1CCCCC1 | 6.99
84 | COc1ccc(CC(C)N)cc1 (centres undefined) | 4.34
85 | O=C(O)c1cc(N=Nc2ccc(O)c(C(=O)O)c2)ccc1O | 5.66
86 | C=C1CC(=CC)C(=O)OC2CC[N+]3([O-])CC=C(COC(=O)C1(C)O)C23 (centres undefined) | 4.5
87 | CC(=O)Oc1cc(C(C)C)c(OCCN(C)C)cc1C | 6.21
88 | CCCCC1C(=O)N(c2ccccc2)N(c2ccccc2)C1=O | 8.98
89 | CCS(=O)(=O)CCSP(=O)(OC)OC | 4.15
90 | CN(C)C(CSS(=O)(=O)c1ccccc1)CSS(=O)(=O)c1ccccc1 | 9.6
91 | CNCCC=C1c2ccccc2COc2ccccc21 | 7.03
92 | COc1ccc(CCN)cc1OC | 3.53

Row | SMILES | LC retention time [min]
93 | CC(C)(C)NCC(O)c1cc(O)cc(O)c1 (centres undefined) | 3.11
94 | CCc1ccc(CCOc2ccc(CC3SC(=O)NC3=O)cc2)nc1 (centres undefined) | 9.09
95 | COc1ccc(N)cc1N | 2.37
96 | CC[N+]1(C)C2CC(OC(=O)C(CO)c3ccccc3)CC1C1OC12 (centres undefined) | 3.87
97 | CCCCOc1cc(C(=O)OCCN(CC)CC)ccc1N | 5.94
98 | NCC1CCCCC1(O)c1cccc(O)c1 (centres undefined) | 4.36
99 | CCC(C)C(=O)OC1CC(O)C=C2C=CC(C)C(CCC(O)CC(O)CC(=O)O)C21 (centres undefined) | 8.36
100 | CNCCCC12CCC(c3ccccc31)c1ccccc12 | 8.08
101 | Cc1cc(C)cc(OCC2CNC(=O)O2)c1 (centres undefined) | 7.86
102 | CNCCC(Oc1cccc2ccccc12)c1cccs1 (centres undefined) | 8.11
103 | COc1cc2nc(N3CCN(C(=O)c4ccco4)CC3)nc(N)c2cc1OC | 5.34
104 | CCNC(=O)c1ccc(OC)cc1 | 5.59
105 | CCC1C(=O)OCC1Cc1cncn1C (centres undefined) | 2.74
106 | CN1CCN2c3ncc(O)cc3Cc3ccccc3C2C1 (centres undefined) | 4.54
107 | O=c1[nH]c2ccccc2n1CCCN1CCN(C(c2ccccc2)c2ccccc2)CC1 | 8.42
108 | CC1(C)OC2COC3(COS(N)(=O)=O)OC(C)(C)OC3C2O1 (centres undefined) | 6.08
109 | COP(=S)(OC)Oc1ccc(Sc2ccc(OP(=S)(OC)OC)cc2)cc1 | 12.4
110 | CC(CCc1ccccc1)NCC(O)c1ccc(O)c(C(N)=O)c1 (centres undefined) | 5.74
111 | CCCC(NC)C(=O)c1ccccc1 (centres undefined) | 4.89
112 | CCOP(=O)(OCC)Oc1ccc([N+](=O)[O-])cc1 | 8.01
113 | CC=CCC1=C(C)C(OC(=O)C2C(C=C(C)C)C2(C)C)CC1=O (centres undefined) | 12.9
114 | CCC(=O)OC(OP(=O)(CCCCc1ccccc1)CC(=O)N1CC(C2CCCCC2)CC1C(=O)O)C(C)C (centres undefined) | 12.4
